Test results reported in patent publication US10392381B2, “Prevention and treatment of non-alcoholic fatty liver disease” (Ohio University, priority 2014, dated 2019).

Columns and labels:
[1] = test system: C57BL/6J mice on a HFD (liver tissue); assay: Prevention of NAFLD in C57BL/6J mice fed a HFD (Example 7): macroscopic observation, hematoxylin and eosin histology, liver triglyceride quantification; assay type: in vivo; conditions: C57BL/6J mice on HFD; for mean triglyceride concentration (mg/g liver) in liver tissue compared with HFD or HFD + DMSO mice / Percentage of Triglyceride Values (mg/g liver) Below the Mean of the HFD + Sham Group / macroscopic observation of fatty liver disease compared with sham or DMSO injection: 1 mg/kg intraperitoneal once daily for 6 weeks; for mean triglyceride concentration (mg/g liver) in liver tissue compared with HFD or HFD + DMSO mice: comparison of means in FIG. 3; for Percentage of Triglyceride Values (mg/g liver) Below the Mean of the HFD + Sham Group: middle, right and left liver lobes (FIG. 3), 1 mg/kg; for macroscopic observation of fatty liver disease compared with sham or DMSO injection: removed liver tissue; for histological examination of hepatic fat accumulation compared with sham or DMSO injection: 1 mg/kg intraperitoneal once daily, middle lobe of liver, hematoxylin and eosin (FIG. 4)
Protocol: Quantification of triglycerides of the middle, right, and left lobes was performed to ensure that accumulation (or lack thereof) of triglycerides was similar in each lobe of the liver and to ensure that a representative analysis of triglyceride accumulation in the liver as a whole was assessed. The caudate lobe was excluded since the caudate lobe is very small compared to the middle, right, and left lobes. Triglycerides were quantified in accordance with the following general protocol, based upon the Salmon and Flatt Method of Liver Saponification. 50-100 mg of liver tissue was placed into an Eppendorf tube and weighed. Equal volume per weight of 3 M KOH (in 65% EtOH) was added to the tube and vortexed. The tube was placed at 70° C. for 1 hr to activate digestion. The tubes were vortexed every 15 minutes. The tube was set at room temperature overnight to allow for complete digestion, and was vortexed periodically. The sample was diluted to a final concentration of 100 mg of liver tissue per 600 μl fluid; the sample was diluted by adding 2 M Tris-HCl (un-pHed) to a final concentration of 50 mM. Where a second dilution was required, the sample was diluted using 50 mM Tris-HCl (pH 7.5). Triglycerides-GPO (0.5 mL, liquid; Pointe Scientific Cat. No. T7532-500; Fisher Scientific, Pittsburgh, Pa.) were aliquoted into Eppendorf tubes and warmed in a 37° C. water bath for 5-10 minutes. Glycerol standards (0, 1, 2.5, 5, 7.5 and 10 mmol/L) were made by diluting 10 mmol/L stock of glycerol, such as, e.g., with 50 mM Tris-HCl. 5 μL of the sample and glycerol standards (0, 1, 2.5, 5, 7.5 and 10 mmol/L) were added to 0.5 mL of the triglycerides-GPO, mixed, and incubated at room temperature for 5 minutes. The mixture was then vortexed and added (200 μL) to each well of a 96-well flat-bottom ELISA plate (in triplicate). Absorbance (i.e., optical density) was read at 500 nm. The concentrations of the samples were determined via use of a plot of glycerol standards concentration (mmol/L) with respect to optical density (i.e., O.D.) at 500 nm. The concentration of glycerol (mg glycerol/g tissue) was then calculated and triglyceride concentration was determined, in accordance with calculations known to those of ordinary skill in the art.
Experimental Protocol. 7 week old male C57BL/6J mice (i.e., a mouse model of obesity-induced insulin resistance and Type 2 Diabetes Mellitus) were placed on a HFD (i.e., having a fat content of 60%, a protein content of 20%, and a carbohydrate content of […], N=50). The C57BL/6J mice on the HFD were divided into five groups, wherein one such group was immediately given an intraperitoneal sham injection (i.e., Group 1, serving as a stress control N=10), another group was immediately given an intraperiteonal injection of dimethyl sulfoxide (hereinafter, “DMSO”, i.e., Group 2, serving as a vehicle control, N=10), another group was immediately given an intraperitoneal injection of 1 mg/kg COB-204 (i.e., Group 3, N=10), another group was immediately given an intraperitoneal injection of 1 mg/kg COB-214 (i.e., Group 4, N=10), and another group was immediately given an intraperitoneal injection of 1 mg/kg COB-187 (i.e., Group 5, N=10). Such injections were initiated with the HFD and were given to the C57BL/6J mice on the HFD once daily for a period of 6 weeks. Food intake and total body weight of the C57BL/6J mice were measured weekly.
At 0 weeks, some of the C57BL/6J mice from each of Groups 1-5 were euthanized (N=5). Liver tissue of the C57BL/6J mice euthanized at 0 weeks was harvested and divided into lobes, including the middle lobe, the right lobe, and the left lobe, for morphological (i.e., hematoxylin and eosin staining) and molecular analysis (i.e., quanitification of triglycerides). The caudate lobe was excluded from such division as the caudate lobe is very small compared to the middle, right, and left lobes. […]

[2] = test system: C57BL/6J mice on an HFD with NAFLD (liver tissue); assay: Treatment of NAFLD in C57BL/6J mice fed a HFD (Example 8, contemplated); assay type: in vivo; conditions: C57BL/6J mice on HFD after NAFLD is observed; once daily ip 1, 3 or 10 mg/kg/day for up to 16 weeks (24 weeks if no effect)
Protocol: Contemplated Experimental Protocol. C57BL/6J mice are placed on an HFD containing 60% fat (by % Kcal) (Diet #D12492, Research Diets, Inc.) for a period of weeks (as determined by the results of Example 6) until development of NAFLD is observed and clearly distinguishable from LFD-fed mice of the same age (between 4-8 weeks). At the time or after NAFLD is observed, once daily ip injections of COB-204, COB-214, COB-152, COB-187, DMSO, or sham are administered. Five mice are then euthanized weekly thereafter to characterize the effects of the COB-204, COB-214, COB-152, COB-187, DMSO, and/or sham on treatment of NAFLD for the period of up to 16 weeks post-initiation of the COB-204, COB-214, COB-152, COB-187, DMSO, and sham administration. The period of time for which treatment is administered will be extended to 24 weeks if no effect of the COB-204, COB-214, COB-152, or COB-187 administration on treatment of NAFLD is observed. The following Table further illustrates the experimental design:
If no effect of the COB-204, COB-214, COB-152, or COB-187 administration on treatment of NAFLD is observed by 16 weeks post-initiation of the COB-204, COB-214, COB-152, COB-187, DMSO, and sham administration, a subsequent study is performed wherein the period of time is extended to 24 weeks of the COB-204, COB-214, COB-152, and COB-187 administration, with 5 mice euthanized weekly from weeks 17-24 as previously described. The following Table further illustrates the experimental design:
NAFLD is evaluated in the liver of the HFD mice macroscopically, microscopically, and molecularly. More specifically, following euthanasia, the liver of each mouse is removed, weighed, and photographs taken thereof for macroscopic and/or gross observation of NAFLD. Then, the liver of each mouse is split in half, wherein one half is used for microscopic analysis of NAFLD and the remaining half is used for molecular analysis of NAFLD (i.e., quantification of triglycerides). Quantification of triglycerides is performed in accordance with the general protocol described in Example 6.

[3] = test system: Patients at risk for developing NAFLD; assay: Therapeutic use to prevent development of NAFLD in patients at risk (Example 10, contemplated); assay type: in vivo, human; conditions: once daily oral dose of 1 mg/kg, chronically
Protocol: Contemplated Experimental Protocol. Patients at risk for developing NAFLD are prescribed COB-204, COB-214, COB-152, or COB-187 to prevent excess accumulation of fat. Each patient takes a once daily oral dose of 1 mg/kg of body weight of the COB-204, COB-214, COB-152, or COB-187, chronically, during which fat content in the liver is determined via liver function testing, liver ultrasound, and liver biopsy.

[4] = test system: Patients having NAFLD; assay: Therapeutic use to treat NAFLD in patients (Example 11, contemplated); assay type: in vivo, human; conditions: once daily oral dose of 3 mg/kg
Protocol: Contemplated Experimental Protocol. Patients having NAFLD are prescribed COB-204, COB-214, COB-152, or COB-187 to reduce the fat content in their liver. After determination of a baseline level of fat content in each of the patients' livers, each patient takes a once daily oral dose of 3 mg/kg of body weight of the COB-204, COB-214, COB-152, or COB-187, during which fat content in each patient's liver tissue is determined via liver function testing, liver ultrasound, and liver biopsy.

Compound	mean triglyceride concentration (mg/g liver) in liver tissue compared with HFD or HFD + DMSO mice [1]	Percentage of Triglyceride Values (mg/g liver) Below the Mean of the HFD + Sham Group [1] [%]	macroscopic observation of fatty liver disease compared with sham or DMSO injection [1]	histological examination of hepatic fat accumulation compared with sham or DMSO injection [1]	fat content in the liver tissue of the mice [2]	excess accumulation of fat in the liver of patients [3]	fat content in the patient's liver [4]
COc1ccc(-c2csc(=S)n2Cc2cccnc2)c(OC)c1 [COB-204]	no effect	60	much less fatty liver disease	much less hepatic fat accumulation	reduced relative to a baseline level	no excess accumulation of fat	reduced relative to the baseline level
OC1(c2ccccc2)CSC(=S)N1Cc1ccncc1 (stereo not drawn) [COB-187]	lower mean triglyceride concentration	79	much less fatty liver disease	much less hepatic fat accumulation	reduced relative to a baseline level	no excess accumulation of fat	reduced relative to the baseline level
CCCn1c(-c2cccnc2)csc1=S [COB-214]	lower mean triglyceride concentration	87	much less fatty liver disease	much less hepatic fat accumulation	reduced relative to a baseline level	no excess accumulation of fat	reduced relative to the baseline level
OC1(c2ccccc2)CSC(=S)N1Cc1cccnc1 (stereo not drawn) [COB-152]					reduced relative to a baseline level	no excess accumulation of fat	reduced relative to the baseline level
